The values that follow come from US8394828B2 (Janssen Pharmaceutica, NV, priority 2003, dated 2013).

The target in experiment [1] is T1, human VR1 (Homo sapiens, UniProt Q8NER1).
T1 construct: expressed in transfected cells; host or cells: HEK293
In words: Human VR1 functional assay (intracellular Ca++, FLIPR, capsaicin challenge). It is filed as cell-based. How it is done: The functional activity of the test compounds was determined by measuring changes in intracellular calcium concentration using a Ca^++-sensitive fluorescent dye and FLIPR™ technology.
EC50 or IC50 values were determined from dose-response studies.

The target of experiment [2] is T1, human VR1. In words: Human VR1 [3H] RTX binding assay. To be noted: 3H-RTX binding; for Ki: hVR1, read-out: 3H-RTX binding assay Ki hVR1; for inhibition at 1 µM: compound at 1 μM. In short, it runs like this:
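Membranes from HEK293 cells transfected with human VR1, about 120 μg protein/ml, incubated with [3H] RTX in HEPES buffer pH 7.4 with 0.25 mg/mL fatty acid-free BSA for 60 min at 37° C. Bound radioactivity measured by scintillation counting. Non-specific binding defined with 200 nM unlabeled RTX.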

For experiment [3], the system named is carrageenan paw-induced thermal hyperalgesia. In words: Carrageenan Paw-induced Thermal Hyperalgesia. It is filed as in vivo, mice or rats. Conditions: read-out: % Recovery; for inhibition in vivo at 30 mg/kg: 30 mg/kg po. (In the carrageenan paw model, swelling and tenderness develop within hours.)
Experiment [4] deals with Dextran Sulfate Sodium Induced Colitis. In words: Mouse Colitis Model (Dextran Sulfate Sodium Induced Colitis). Conditions: 5% DSS in drinking water, twice daily, orally, 0.05-30 mg/kg. In kind it is in vivo, mice. From the text: These are similar to what occurs in human colitis.
Balb/c female mice are provided with a solution of tap water containing 5% DSS (ICN chemicals) ad libitum over a 7-day period. […] This material may be administered orally or intraperitoneally, once or twice daily. At the end of this period, the animals are euthanized and their colons are collected for further analysis. Among the parameters analyzed are the length of the colon starting from 1 cm above the anus to the top of the cecum, the weight of the colon, the consistency of any stools found within the colon, and the gross macroscopic appearance of the colon. The distal colon between the 1st and the 4th centimeter are dissected into two halves. One half is placed in 10% neutral buffered formalin for later histological analysis if desired. The other half is cleaned in a bath of physiological buffer, patted dry, weighed and then placed in a solution of 0.5% hexadecyltrimethylammonium bromide (HTAB; Sigma) dissolved in 50 mM phosphate buffer, adjusted to pH 5.4. The tissue sample thus treated is then frozen at −80° C.
For the following parameters, colon length, colon weight, stool consistency and appearance and macroscopic damage a scoring system is used to describe the changes. The 4 scores for each animal are added to provide a Total Score. Thus,
Stool Score: • 0=normal (well-formed fecal pellets); • 1=loosely-shaped moist pellets; • 2=amorphous, moist, sticky pellets; • 3=bloody diarrhea. Presence of blood in stool: add 1 to scores <3
Colon Damage Score: • 0=no inflammation • 1=reddening mild inflammation; • 2=moderate inflammation or more widely distributed; • 3=severe inflammation and/or extensively distributed
Colon Weight Score: • 0=<5% weight loss; • 1=5-14% weight loss; • 2=15-24% weight loss; • 3=25-35% weight loss; 4=>35% weight loss.
Colon Length Score: • 0=<5% shortening; • 1=5-14% shortening; • 2=15-24% shortening; • 3=25-35% shortening; • 4=>35% shortening.
Colon weight changes and colon length changes are also directly measured and the net changes compared to DSS and untreated controls are used to calculate a % inhibition of colon weight loss or colon shrinkage induced by DSS treatment.
The tissue sample previously frozen at −80° C. in 0.5% solution of HTAB is thawed, homogenized twice for 15 seconds using a Brinkman Polytron homogenizer fitted with a TS10 generator. The crude homogenate is next sonicated at 60 watts for two 5-second bursts and then centrifuged for 20 minutes at 15000×g. The supernatant of this homogenate is collected, aliquoted and frozen at −70° C. for future analysis for myeloperoxidase analysis (MPO). MPO is an intracellular enzyme found in neutrophils and can be considered a surrogate marker for neutrophil infiltration into tissues, including those afflicted with colitis (Diaz-Granados, et al., 2000).
Statistical analyses were performed by ANOVA using Multiple Comparisons Test and Tukey's test.

Experiment [5] deals with rings of bronchial tissue obtained from male guinea pigs. In words: Guinea Pig Bronchial Ring Constriction. Conditions: tissues exposed to compound for 30 min; capsaicin 10 nM-10 μM; FIG. 7. How it is done: Two mm rings of bronchial tissue obtained from male guinea pigs were suspended in normal Krebs solution between two wire hooks under an initial loading tension of 1 gram. The saline was maintained in a 5% CO2 and 95% O2 atmosphere at 37° C. in the presence of indomethacin (5 μM). A sub-maximal dose of 5-methylfurmethide (5 Mef, 1 μM) was added to each tissue to determine responsiveness using an isometric force transducer. After washout, tissues were exposed to compounds or vehicle for 30 min and treated with thiorphan (10 μM, 5% Na2CO3). A concentration-response curve was then constructed using capsaicin (10 nM-10 μM) increasing in 0.5 log unit increments. The dose response curve was calculated as % max of the 5-Mef response and estimated pA2 were determined.

For a further experiment, the system named is mice. In words: Hot-plate test, reference compounds. In kind it is in vivo. To be noted: i.p., pre-treat time 30 min. From the text: The hot-plate test originally described by Eddy and Leimbach (J. Pharmacol. Exp. Ther. 107:385-393, 1953) with minor modifications (e.g., O'Callaghan and Holtzman, J. Pharmacol. Exp. Ther. 192: 497-505, 1975) is used to ascertain the analgesic potential of compounds.
Generally, male, Swiss-derived albino mice (CRS-CD1®; Charles River Laboratories), weighing 18-24 g at the time of testing or male Sprague Dawley rats (CD1, Charles River Laboratories) 100-300 g are used. The animals are weighed, placed in a plastic box with wood chips (typically 10 mice or 4-6 rats per box) and allowed to acclimate before testing. […]
An animal is placed on the heated surface and the time interval between placement and a shaking, licking or tucking of the hindpaw is recorded as the control reaction time (RTC). […] A percent maximum possible effect (% MPE) can also be calculated from the following formula: % MPE=100×(RTdc−RTc)/(CO−RTc), where RTdc and RTc are drug-treated and control reaction times, respectively, and CO is cut-off time.
As a screen, the largest possible nontoxic dose of test drug is administered. If activity is detected, and if appropriate, generally 3-5 doses (usually 10 mice or 6-8 rats per dose) are used to construct a dose response curve or time course. […] The ED50 value is determined at the time of peak effect.
(Thermal pain tests record how soon the animal reacts.)

The mark [6] stands for this setting: FLIPR functional assay IC50 hVR1 60 min, 60 min.
Where [7] appears, read: hVR1, capsaicin challenge, read-out: FLIPR functional assay IC50 hVR1.

Like-named read-outs stand apart in the source and are kept apart here.

T1 sequence (Q8NER1 whole entry): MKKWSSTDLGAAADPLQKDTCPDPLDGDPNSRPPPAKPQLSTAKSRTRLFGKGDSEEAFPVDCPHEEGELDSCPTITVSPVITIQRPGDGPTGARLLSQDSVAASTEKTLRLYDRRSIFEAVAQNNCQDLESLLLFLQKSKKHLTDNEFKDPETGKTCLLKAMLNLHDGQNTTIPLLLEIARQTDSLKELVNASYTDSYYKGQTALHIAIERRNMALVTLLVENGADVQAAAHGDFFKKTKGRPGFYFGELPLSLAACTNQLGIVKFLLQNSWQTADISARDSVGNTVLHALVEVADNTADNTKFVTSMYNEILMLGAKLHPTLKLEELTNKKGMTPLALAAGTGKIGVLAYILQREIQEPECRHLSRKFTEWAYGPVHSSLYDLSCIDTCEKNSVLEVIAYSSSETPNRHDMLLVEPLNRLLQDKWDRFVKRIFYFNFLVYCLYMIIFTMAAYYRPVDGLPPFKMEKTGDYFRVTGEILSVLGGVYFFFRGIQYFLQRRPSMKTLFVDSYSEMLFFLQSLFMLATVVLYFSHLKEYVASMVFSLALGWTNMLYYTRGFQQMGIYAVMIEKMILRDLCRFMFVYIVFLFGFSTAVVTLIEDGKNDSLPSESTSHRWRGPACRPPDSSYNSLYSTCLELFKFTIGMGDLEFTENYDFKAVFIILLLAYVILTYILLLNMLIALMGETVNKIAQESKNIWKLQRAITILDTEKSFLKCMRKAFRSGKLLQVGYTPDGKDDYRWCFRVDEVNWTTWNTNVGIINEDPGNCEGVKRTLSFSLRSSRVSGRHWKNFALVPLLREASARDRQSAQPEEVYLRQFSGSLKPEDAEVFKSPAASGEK

In the case of `CCC(C)(C)c1ccc(CCC(=O)Nc2cnc3ccccc3c2)cc1` [Example 14, 3-[4-(1,1-Dimethyl-propyl)-phenyl]-N-quinolin-3-yl-propionamide], the IC50 (as a rule, the concentration needed to halve the response being measured) was 30 nM at human VR1 [1] (setting [6]) and 36.7 nM at human VR1 [1] (setting [7]). The Ki (in general, the equilibrium dissociation constant of an inhibitor or competing ligand from its target) at human VR1 [2] was 5.24 nM. Also, in experiment [3], the inhibition in vivo at 30 mg/kg came out at 47%.

`CN(CC1CCCCC1)c1ccc(CCC(=O)Nc2cnc3ccccc3c2)cc1` [Example 35, 3-[4-(Cyclohexylmethyl-methyl-amino)-phenyl]-N-quinolin-3-yl-propionamide]: the IC50 at human VR1 [1] (setting [6]) came out at 390 nM; at human VR1 [1] (setting [7]), 260 nM. In addition, the Ki on human VR1 [2] came to 81.5 nM. Besides, in experiment [3] (20 mg/kg po), the inhibition in vivo at 20 mg/kg worked out at 87%.

On to `CCCCCN(C)c1ccc(CCC(=O)Nc2cnc3ccccc3c2)cc1` [Example 37, 3-[4-(Methyl-pentyl-amino)-phenyl]-N-quinolin-3-yl-propionamide], for which the figures for the 50% inhibitory concentration (IC50) on human VR1 [1] (setting [6]) and at human VR1 [1] (setting [7]) were 190 nM and 1100 nM, respectively. The inhibition constant Ki on human VR1 [2] amounted to 178 nM. For the same compound, the inhibition in vivo at 30 mg/kg in experiment [3] is 58%.

For the compound `O=C(C=Cc1ccc(Cl)c(C(F)(F)F)c1)Nc1cnc2ccccc2c1` [Example 56, 3-(4-Chloro-3-trifluoromethyl-phenyl)-N-quinolin-3-yl-acrylamide], the inhibition in vivo at 10 mg/kg in experiment [3] (10 mg/kg po) was determined as 58%.

For `CC(C)(C)c1ccc(C=CC(=O)Nc2cnc3ccccc3c2Cl)cc1` [Example 82, 3-(4-tert-Butyl-phenyl)-N-(4-chloro-quinolin-3-yl)-acrylamide], the inhibition in vivo at 10 mg/kg in experiment [3] (10 mg/kg po) was found to be 70%.

Consider `CN(CCc1ccccc1)c1ccc(C(=O)Nc2cnc3ccccc3c2)cc1` [Example 89, 4-(Methyl-phenethyl-amino)-N-quinolin-3-yl-benzamide], for which the IC50 against human VR1 [1] (setting [6]) amounted to 72 nM. In addition, the IC50 on human VR1 [1] (setting [7]) came to 1900 nM. For the same compound, on human VR1 [2], the inhibition (commonly the change of the read-out against control, counted positive when it falls) at 1 µM is 102% and the Ki was 27.3 nM. The inhibition in vivo at 10 mg/kg in experiment [3] (10 mg/kg po) was found to be 42%.

On to `CN(c1ccc(C(=O)Nc2cnc3ccccc3c2)cc1)C1CCCCC1` [Example 102, 4-(Cyclohexyl-methyl-amino)-N-quinolin-3-yl-benzamide], for which the inhibition in vivo at 30 mg/kg in experiment [3] stood at 55%. The “inhibition of colon weight loss” value in experiment [4] (FIG. 1) is “significant (p<0.05) inhibition”. Besides, the “inhibition of colon shrinkage” value in experiment [4] (FIG. 2) is “significant (p<0.05) inhibition”. The “Colon Damage Score” value in experiment [4] (FIG. 3) is “diminished (p>0.05), but not statistically significantly”. Besides, the “Stool Score” value in experiment [4] (FIG. 4) was “decreased (p>0.05), but not statistically significantly”. Moreover, the “inhibition of Total Score” value in experiment [4] (FIG. 5) was “significant (p<0.05) inhibition”. For the same compound, the “Myleoperoxidase (MPO) inhibition” value in experiment [4] (colon tissue, FIG. 6) is “inhibition (p>0.05)”.

As to `CCCCCN(C)c1ccc(C(=O)Nc2cnc3ccccc3c2)cc1` [Example 154, 4-(Methyl-pentyl-amino)-N-quinolin-3-yl-benzamide], the inhibition in vivo at 10 mg/kg in experiment [3] (10 mg/kg sc) amounted to 83%.

`O=C(Nc1cnc2ccccc2c1)c1ccc(N2CC3CCCC(C3)C2)cc1` [Example 178, 4-(3-Aza-bicyclo[3.3.1]non-3-yl)-N-quinolin-3-yl-benzamide]: the “shift of the capsaicin dose-response curve” value in experiment [5] was “shifted the capsaicin dose-response curve to the right”.

On human VR1 [1] (setting [6]), `O=C(Nc1cnc2ccccc2c1)c1ccc(N2CCC(Cc3ccccc3)CC2)cc1` [Example 180, 4-(4-Benzyl-piperidin-1-yl)-N-quinolin-3-yl-benzamide] returned an IC50 of 357 nM. Also, at human VR1 [2], the inhibition at 1 µM was 99% and the Ki was found to be 17.6 nM. The inhibition in vivo at 10 mg/kg in experiment [3] (10 mg/kg po) is 64%.

At human VR1 [1] (setting [6]), `CCCCCN1CCc2cc(C(=O)Nc3cnc4ccccc4c3)ccc21` [Example 227, 1-Pentyl-2,3-dihydro-1H-indole-5-carboxylic acid quinolin-3-ylamide] had an IC50 of 106 nM. The IC50 at human VR1 [1] (setting [7]) came to 84 nM. Also, at human VR1 [2], the inhibition at 1 µM came to 98% and the Ki stood at 24.1 nM. Besides, the inhibition in vivo at 10 mg/kg in experiment [3] (10 mg/kg po) came out at 52%.

For `Cc1cc(CC(=O)O)n(C)c1C(=O)c1ccc(Cl)cc1` [Zomepirac], the “ED50 (95% C.I.)” value in the experiment with mice is “inactive”.
